Experiments:
[1] = system: hrR3; experiment: Dexamethasone treatment of hrR3-infected, mimosine/GCV-treated neural stem cell cultures; format: cell-based, HSV-1; details: dexamethasone 10^-7 M on day 10; detection level
[2] = system: neural stem cells (clone C17.2); experiment: Cell number and growth of neural stem cells under mimosine and GCV; format: cell-based, murine
Text: Medium was changed every third day. […] Medium was replaced on day 4 and day 6.
In contrast, untreated neural stem cell cultures continued proliferating over the same period, reaching a density of 1.7×10^6 cells/ml on day 10. […] Re-growth of neural stem cells occurred at a faster rate if cells were additionally rinsed and split 1:8 after removal of drug(s) on day 10.

[3] = system: neural stem cells (clone C17.2); experiment: Cytopathic effect and morphology of neural stem cells (drug treatment, virus infection); details: for cell morphology: cells below confluency, mimosine 400 μM
Procedure: Neural stem cells were grown in 24-well plates until they reached confluency (approximately 400,000 cells/well). Medium was changed every third day. […] Medium was replaced on day 4 and day 6. […] Cell culture medium was changed again on days 10, 13 and 17. […] Cell morphology and cells/well for different treatment conditions were determined in duplicate on days 0, 4, 7, 10, 13, and 17. The number of cells/well was determined using a Coulter Counter (Coulter Electronics, Hialeah, Fla.).
Virus titers in the conditioned medium—and in some experiments also in cell lysates—were determined by standard plaque tests on Vero cells. […] Also, the influence of the expression of viral proteins VP 16 and ICP6 (RR), mediated by infection with amplicon vectors, on the replication of hrR3 mutant virus was determined at different time points after infection of neural stem cells. Stocks of helper-free packaged amplicons HSV 16. HSVRR and HSVIacZ (100 μl each) were added to the wells on day 7, 10, or 13. Three days later titers of hrR3 in the medium were determined by plaque assay.
The genotype of hrR3 is RR- LacZ^+ [Goldstein and Weller, Virology 166: 141-51, 1988] with the lacZ gene under control of the ICP6 early viral promoter. RRP450 was derived from hrR3 by replacement of the lacZ gene with the cytochrome P450 gene [Chase et al., Nat Biotechnol 16: 444-8, 1998].

Row | SMILES | virus titers in the media and cell lysates [1] | cell viability ([2]; 5 μM added from day 6, compared to mimosine alone) | cell morphology [3] | treatment time at which block of cell division and viral replication is reversible [2] [days] | Cells/well ([2]; 400 μM, 4 and 7 days after beginning of treatment) | cell number of infected cultures kept on treatment ([2]; infected MOI 1 day 7, day 13 and 17) | growth after removal of drug ([2]; removed on day 10) | virally induced CPE in presence of drug [3] | CPE ([3]; day 13, infected day 7, split 1:8 into drug-free media day 10) | CPE ([3]; day 13, infected, not split) | CPE ([3]; day 17, infected and split) | CPE ([3]; day 17, infected, non-split) | cytopathic effect associated with virus replication ([3]; infection at MOI of 10) | cytopathic effect of drug alone ([3]; uninfected)
1 | C[C@@H]1C[C@H]2[C@@H]3CCC4=CC(=O)C=C[C@]4(C)[C@@]3(F)[C@@H](O)C[C@]2(C)[C@@]1(O)C(=O)CO [dexamethasone] | < 10 pfu/100,000 cells |  |  |  |  |  |  |  |  |  |  |  |  | 
2 | Nc1nc(O)c2ncn(COC(CO)CO)c2n1 [GCV, ganciclovir] |  | did not significantly affect cell viability | did not change this morphology |  |  |  |  |  |  |  |  |  |  | 
3 | NC(Cn1ccc(=O)c(O)c1)C(=O)O (stereo not drawn) [mimosine] |  |  | developed extensions and a more neuronal shape | ≥ 13 | around 400,000 cells | remained at the same cell number | growth of neural stem cells resumed | prevented virally induced CPE | some cytopathic effect | no CPE | extensive CPE | some CPE | typical cytopathic effect | did not induce a significant cytopathic effect
